{"source": "ChEMBL document CHEMBL5260821", "about": "“2-Aminothiophene scaffolds: Diverse biological and pharmacological attributes in medicinal chemistry” (Eur J Med Chem, 2017)", "key": {"CCRF-CEM": {"system": "CCRF-CEM", "test": "Antiproliferative activity against human CEM cells assessed as reduction in cell viability", "format": "functional, cell-based"}, "T47D": {"system": "T47D", "test": "Antiproliferative activity against human T47D cells assessed as reduction in cell viability measured for 48 hr by MTT assay", "format": "functional, cell-based"}, "Staphylococcus aureus": {"system": "Staphylococcus aureus", "test": "Antibacterial activity against Staphylococcus aureus ATCC 6538 assessed as inhibition zone", "format": "functional"}, "Influenza A virus [1]": {"system": "Influenza A virus", "test": "Antiviral activity against Influenza A virus A/WSN/33(H1N1) strain", "format": "functional, organism-based"}, "Candida albicans": {"system": "Candida albicans", "test": "Antifungal activity against Candida albicans ATCC 10231 assessed as inhibition zone", "format": "functional"}, "Influenza A virus [2]": {"system": "Influenza A virus", "test": "Antiviral activity against influenza A virus", "format": "functional, organism-based"}, "Escherichia coli": {"system": "Escherichia coli", "test": "Antibacterial activity against Escherichia coli ATCC 11229 assessed as inhibition zone", "format": "functional"}, "A549": {"system": "A549", "test": "Antiproliferative activity against human A549 cells assessed as reduction in cell viability measured for 48 hr by MTT assay", "format": "functional, cell-based", "conditions": "A549, 48 h"}, "Influenza A virus [3]": {"system": "Influenza A virus", "test": "Antiviral activity against Influenza A virus H3N2 subtype", "format": "functional, organism-based"}, "HCT-15": {"system": "HCT-15", "test": "Antiproliferative activity against human HCT-15 cells assessed as reduction in cell viability measured for 48 hr by MTT assay", "format": "functional, cell-based", "conditions": "HCT-15, 48 h"}, "PANC-1 [4]": {"system": "PANC-1", "test": "Antiproliferative activity against human PANC-1 cells assessed as reduction in cell viability at 25 to 50 uM relative to control", "format": "functional", "conditions": "dose 25-50 µM"}, "HeLa [5]": {"system": "HeLa", "test": "Antiproliferative activity against human HeLa cells assessed as reduction in cell viability at 10 to 50 uM relative to control", "format": "functional", "conditions": "dose 10-50 µM"}, "PANC-1 [6]": {"system": "PANC-1", "test": "Induction of cell cycle arrest in human PANC-1 cells assessed as accumulation of cells in G0/G1 phase", "format": "functional"}, "HeLa [7]": {"system": "HeLa", "test": "Induction of cell cycle arrest in human HeLa cells assessed as accumulation of cells in subG1 phase", "format": "functional"}, "Neprilysin": {"target": "Neprilysin (Homo sapiens, UniProt P08473)", "sequence (P08473 whole entry)": "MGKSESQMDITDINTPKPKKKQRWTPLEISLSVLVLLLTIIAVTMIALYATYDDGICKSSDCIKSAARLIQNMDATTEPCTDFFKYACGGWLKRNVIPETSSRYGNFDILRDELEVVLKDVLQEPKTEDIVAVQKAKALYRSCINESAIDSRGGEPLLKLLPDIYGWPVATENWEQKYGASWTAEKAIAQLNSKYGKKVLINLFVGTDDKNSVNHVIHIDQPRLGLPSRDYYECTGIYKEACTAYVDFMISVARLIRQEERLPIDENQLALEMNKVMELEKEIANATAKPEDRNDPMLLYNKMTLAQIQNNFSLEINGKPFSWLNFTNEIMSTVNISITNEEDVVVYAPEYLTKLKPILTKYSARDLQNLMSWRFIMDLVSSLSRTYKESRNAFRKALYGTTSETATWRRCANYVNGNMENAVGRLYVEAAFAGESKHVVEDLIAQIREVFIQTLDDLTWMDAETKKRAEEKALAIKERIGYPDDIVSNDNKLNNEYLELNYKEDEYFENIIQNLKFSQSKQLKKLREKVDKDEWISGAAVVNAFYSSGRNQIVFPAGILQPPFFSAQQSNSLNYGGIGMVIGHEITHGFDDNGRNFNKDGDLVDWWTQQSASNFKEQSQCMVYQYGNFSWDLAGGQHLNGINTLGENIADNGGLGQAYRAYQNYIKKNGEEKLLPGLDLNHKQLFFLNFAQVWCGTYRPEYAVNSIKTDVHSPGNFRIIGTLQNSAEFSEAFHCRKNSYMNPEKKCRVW", "test": "Partial agonist activity at human neprilysin expressed in CHP-212 cells", "format": "cell-based"}, "PC-3": {"system": "PC-3", "test": "Antiproliferative activity against human PC-3 cells assessed as reduction in cell viability measured for 48 hr by MTT assay", "format": "functional, cell-based", "conditions": "PC-3, 48 h"}}, "note": "pEC50, pIC50: −log10 of the molar value."}
{"smiles": "COC(=O)c1cc(CSCc2ccc(C(C)C)cc2)sc1N", "values": [{"measurement": "pIC50", "setting": "CCRF-CEM", "result": 6.34}]}
{"smiles": "CCc1ccc(CSCc2cc(C(=O)OC)c(N)s2)cc1", "values": [{"measurement": "pIC50", "setting": "CCRF-CEM", "result": 6.47}]}
{"smiles": "CCOC(=O)c1c(N)sc(/N=C/c2ccc([N+](=O)[O-])o2)c1C(=O)OCC", "values": [{"measurement": "pIC50", "setting": "T47D", "result": 4.67}, {"measurement": "inhibition zone (IZ)", "setting": "Staphylococcus aureus", "result": 22, "unit": "mm"}, {"measurement": "pIC50", "setting": "Influenza A virus [1]", "result": 6.03}, {"measurement": "inhibition zone (IZ)", "setting": "Candida albicans", "result": ">22", "unit": "mm"}, {"measurement": "pIC50", "setting": "Influenza A virus [2]", "result": 6.10}, {"measurement": "inhibition zone (IZ)", "setting": "Escherichia coli", "result": 16, "unit": "mm"}, {"measurement": "pIC50", "setting": "A549", "result": 4.64}, {"measurement": "pIC50", "setting": "Influenza A virus [3]", "result": 5.62}, {"measurement": "pIC50", "setting": "HCT-15", "result": 4.99}]}
{"smiles": "N#Cc1c(/N=C/c2ccc(F)cc2)sc2c1CCCC2", "values": [{"measurement": "Activity", "setting": "PANC-1 [4]", "result": 68, "unit": "%"}, {"measurement": "Activity", "setting": "HeLa [5]", "result": 50, "unit": "%"}, {"measurement": "Activity", "setting": "PANC-1 [6]", "result": 9.3, "unit": "%"}, {"measurement": "Activity", "setting": "HeLa [7]", "result": 12.05, "unit": "%"}]}
{"smiles": "COc1ccc(Br)cc1/C=N/c1sc2c(c1C#N)CCCCC2", "values": [{"measurement": "Activity", "setting": "PANC-1 [4]", "result": 50, "unit": "%"}, {"measurement": "Activity", "setting": "HeLa [5]", "result": 35, "unit": "%"}, {"measurement": "Activity", "setting": "PANC-1 [6]", "result": 28.2, "unit": "%"}, {"measurement": "Activity", "setting": "HeLa [7]", "result": 6.2, "unit": "%"}]}
{"smiles": "CCCN(CC(F)(F)F)c1cc(Br)c(C#N)s1", "values": [{"measurement": "pEC50", "setting": "Neprilysin", "result": 8.30}]}
{"smiles": "CCOC(=O)c1c(N)sc(/N=C/c2ccc([N+](=O)[O-])s2)c1C(=O)OCC", "values": [{"measurement": "pIC50", "setting": "Influenza A virus [1]", "result": 5.45}, {"measurement": "pIC50", "setting": "Influenza A virus [2]", "result": 4.98}, {"measurement": "pIC50", "setting": "A549", "result": 5.89}, {"measurement": "pIC50", "setting": "Influenza A virus [3]", "result": 5.43}, {"measurement": "pIC50", "setting": "PC-3", "result": 4.96}, {"measurement": "pIC50", "setting": "HCT-15", "result": 5.21}]}
